Legend:
[1] = test system: TGF-β-stimulated SMAD3 phosphorylation in BEAS-2B cells; assay: Cellular ALK5 potency assay, inhibition of TGF-β stimulated pSMAD3 formation in BEAS-2B cells; assay type: cell-based; details: Homo sapiens; inhibition of TGF-β stimulated pSMAD3 formation, BEAS-2B cells; read-out: BEAS2B pIC50 (converted)
Procedure, shortened: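 pSMAD3 was quantified by AlphaLISA in BEAS-2B lysates after 10 ng/mL TGF-β (final) for 30 min. Before stimulation, cells received compound for 1 h at 37° C in supplemented HBSS. Values are pIC50, relative to TGF-β-stimulated cells without compound.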

[2] = molecular target: T1, recombinant human ALK5 (TGF-βR1) protein (Homo sapiens, UniProt P36897); assay: Biochemical ALK5 (TGF-βR1) assay to measure pKi (LANCE Ultra ULight kinase assay); details: apparent pKi from pIC50 by Cheng-Prusoff, read-out: ALK5 pKi (converted)
T1 construct: purchased Life Technologies PR9075A
T1 sequence (P36897 34-503): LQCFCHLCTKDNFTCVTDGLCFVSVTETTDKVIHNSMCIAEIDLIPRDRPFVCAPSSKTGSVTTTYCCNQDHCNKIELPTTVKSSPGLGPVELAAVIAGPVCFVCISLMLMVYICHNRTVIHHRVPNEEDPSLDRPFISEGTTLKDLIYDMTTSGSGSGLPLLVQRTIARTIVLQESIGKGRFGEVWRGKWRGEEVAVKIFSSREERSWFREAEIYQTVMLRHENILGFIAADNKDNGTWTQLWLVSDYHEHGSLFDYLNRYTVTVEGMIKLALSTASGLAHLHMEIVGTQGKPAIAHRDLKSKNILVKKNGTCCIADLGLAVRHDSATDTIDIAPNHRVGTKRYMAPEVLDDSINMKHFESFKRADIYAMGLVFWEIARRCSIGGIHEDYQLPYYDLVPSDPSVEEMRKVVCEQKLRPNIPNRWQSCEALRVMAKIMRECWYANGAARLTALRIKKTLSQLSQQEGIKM
Procedure, shortened: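 Compounds (10 μM to 25 pM) were preincubated 60 min at room temperature with enzyme, then reactions were started with ATP (125 μM stock, 5× final) and run 60 min at 37 °C. EDTA-containing Eu-anti-phospho-Topo IIα (Thr1342) antibody stopped the reaction; TR-FRET read at 665 nm. pIC50 from 4-parameter fit, converted to pKi via Cheng-Prusoff.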

Structure (SMILES) | IC50 [1] [nM] | Ki [2] [nM]
Cc1cccc(-c2[nH]cnc2-c2ccc3ncc(N4CCN[C@H](C(=O)O)C4)cc3c2)n1 [Compound 682, (2S)-4-[6-[5-(6-methyl-2-pyridyl)-1H-imidazol-4-yl]-3-quinolyl]piperazine-2-carboxylic acid] | 200 to 1260 | 0.398 to 3.16
Cc1cccc(-c2nc3ccccn3c2-c2ccc3ncc(N4CCC(N(C)C)CC4)cc3n2)n1 [Compound 683, N,N-dimethyl-1-[6-[2-(6-methyl-2-pyridyl)imidazo[1,2-a]pyridin-3-yl]-1,5-naphthyridin-3-yl]piperidin-4-amine] | 25.1 to 158 | 0.0398 to 0.316
Cc1cccc(-c2n[nH]cc2-c2ccc3ncc(CNC(C(=O)OC4CCCC4)c4ccccc4)cc3n2)n1 (centres unmarked) [Compound 684, cyclopentyl 2-[[6-[3-(6-methyl-2-pyridyl)-1H-pyrazol-4-yl]-1,5-naphthyridin-3-yl]methylamino]-2-phenyl-acetate] | 200 to 1260 | 3.98 to 31.6
Cc1cccc(-c2n[nH]cc2-c2ccc3ncc(C4=CCC(N(C)C)CC4)cc3n2)n1 (centres unmarked) [Compound 685, N,N-dimethyl-4-[6-[3-(6-methyl-2-pyridyl)-1H-pyrazol-4-yl]-1,5-naphthyridin-3-yl]cyclohex-3-en-1-amine] | 25.1 to 158 | 0.0398 to 0.316
Cc1cccc(-c2[nH]cnc2-c2ccc3ncc(-c4cccc(NC5CCNCC5)c4)cc3c2)n1 [Compound 686, N-[3-[6-[5-(6-methyl-2-pyridyl)-1H-imidazol-4-yl]-3-quinolyl]phenyl]piperidin-4-amine] | 25.1 to 158 | < 0.0316
Cc1nc(-c2n[nH]cc2-c2ccc3ncc(N4CCN(C(C)C)CC4)cc3n2)ccc1F [Compound 687, 2-[3-(5-fluoro-6-methyl-2-pyridyl)-1H-pyrazol-4-yl]-7-(4-isopropylpiperazin-1-yl)-1,5-naphthyridine] | 25.1 to 158 | < 0.0316
Cc1cccc(-c2[nH]cnc2-c2ccc3ncc(N4CCN(C)C(CC(=O)O)C4)cc3c2)n1 (centres unmarked) [Compound 688, 2-[1-methyl-4-[6-[5-(6-methyl-2-pyridyl)-1H-imidazol-4-yl]-3-quinolyl]piperazin-2-yl]acetic acid] | 1580 to 10000 | 0.0398 to 0.316
Cc1cccc(-c2[nH]cnc2-c2ccc3ncc(N4CCNC(CC(=O)OC5CCNCC5)C4)cc3c2)n1 (centres unmarked) [Compound 689, 4-piperidyl 2-[4-[6-[5-(6-methyl-2-pyridyl)-1H-imidazol-4-yl]-3-quinolyl]piperazin-2-yl]acetate] | 200 to 1260 | 0.398 to 3.16
Cc1cccc(-c2[nH]cnc2-c2ccc3ncc(N4CCNC(CC(=O)OCC(C)C)C4)cc3c2)n1 (centres unmarked) [Compound 690, isobutyl 2-[4-[6-[5-(6-methyl-2-pyridyl)-1H-imidazol-4-yl]-3-quinolyl]piperazin-2-yl]acetate] | 25.1 to 158 | 0.0398 to 0.316
CC(=O)N[C@H]1CC=C(c2cnc3ccc(-c4nc[nH]c4-c4cccc(C)n4)cc3c2)CC1 [Compound 691, N-[(1R)-4-[6-[5-(6-methyl-2-pyridyl)-1H-imidazol-4-yl]-3-quinolyl]cyclohex-3-en-1-yl]acetamide] | < 20 | < 0.0316
Cc1cccc(-c2n[nH]cc2-c2ccc3ncc(-c4ccn(C)n4)cc3n2)n1 [Compound 692, 7-(1-methylpyrazol-3-yl)-2-[3-(6-methyl-2-pyridyl)-1H-pyrazol-4-yl]-1,5-naphthyridine] | < 20 | < 0.0316
Cc1cccc(-c2nc3ccccn3c2-c2ccc3ncc(-c4cc5n(n4)CCNC5)cc3n2)n1 [Compound 693, 2-[2-(6-methyl-2-pyridyl)imidazo[1,2-a]pyridin-3-yl]-7-(4,5,6,7-tetrahydropyrazolo[1,5-a]pyrazin-2-yl)-1,5-naphthyridine] | < 20 | < 0.0316
Cc1cccc(-c2n[nH]cc2-c2ccc3ncc(O)cc3n2)n1 [Compound 694, 6-[3-(6-methyl-2-pyridyl)-1H-pyrazol-4-yl]-1,5-naphthyridin-3-ol] | < 20 | 0.0398 to 0.316
Cc1cccc(-c2[nH]cnc2-c2ccc3ncc(Nc4ccc(N5CCN(C(C)C)CC5)cn4)cc3n2)n1 [Compound 695, N-[5-(4-isopropylpiperazin-1-yl)-2-pyridyl]-6-[5-(6-methyl-2-pyridyl)-1H-imidazol-4-yl]-1,5-naphthyridin-3-amine] | 25.1 to 158 | 0.0398 to 0.316
Cc1cccc(-c2n[nH]cc2-c2ccc3ncc(-c4coc(CCN5CCNCC5)n4)cc3n2)n1 [Compound 697, 4-[6-[3-(6-methyl-2-pyridyl)-1H-pyrazol-4-yl]-1,5-naphthyridin-3-yl]-2-(2-piperazin-1-ylethyl)oxazole] | 200 to 1260 | 0.0398 to 0.316
Cc1cccc(-c2n[nH]cc2-c2ccc3ncc(NCC(C)(C)N4CCN(C(C)C)CC4)cc3n2)n1 [Compound 698, N-[2-(4-isopropylpiperazin-1-yl)-2-methyl-propyl]-6-[3-(6-methyl-2-pyridyl)-1H-pyrazol-4-yl]-1,5-naphthyridin-3-amine] | 25.1 to 158 | 0.0398 to 0.316
Cc1cccc(-c2[nH]cnc2-c2ccc3ncc(-c4ccc5c(c4)CNC5)cc3c2)n1 [Compound 699, 3-isoindolin-5-yl-6-[5-(6-methyl-2-pyridyl)-1H-imidazol-4-yl]quinoline] | < 20 | < 0.0316
Cc1cccc(-c2[nH]cnc2-c2ccc3ncc(C(=O)OCC4CNC4)cc3c2)n1 [Compound 700, azetidin-3-ylmethyl 6-[5-(6-methyl-2-pyridyl)-1H-imidazol-4-yl]quinoline-3-carboxylate] | 25.1 to 158 | 0.0398 to 0.316
Cc1cccc(-c2[nH]cnc2-c2ccc3ncc(N4CCC(C(=O)OC5CCNCC5)CC4)cc3c2)n1 [Compound 701, piperidin-4-yl 1-(6-(5-(6-methylpyridin-2-yl)-1H-imidazol-4-yl)quinolin-3-yl)piperidine-4-carboxylate] | 200 to 1260 | 0.0398 to 0.316
Cc1cccc(-c2[nH]cnc2-c2ccc3ncc(N4CCC(C(=O)O[C@@H]5CCN(C)C5)CC4)cc3c2)n1 [Compound 702, [(3R)-1-methylpyrrolidin-3-yl] 1-[6-[5-(6-methyl-2-pyridyl)-1H-imidazol-4-yl]-3-quinolyl]piperidine-4-carboxylate] | 25.1 to 158 | 0.0398 to 0.316
Cc1cccc(-c2[nH]cnc2-c2ccc3ncc(NCCN4CCC5(CCNCC5)C4)cc3c2)n1 [Compound 703, N-[2-(2,8-diazaspiro[4.5]decan-2-yl)ethyl]-6-[5-(6-methyl-2-pyridyl)-1H-imidazol-4-yl]quinolin-3-amine] | 25.1 to 158 | 0.0398 to 0.316
Cc1cccc(-c2[nH]cnc2-c2ccc3ncc(-c4cncc(C(=O)O[C@H]5CCN(C)C5)c4)cc3c2)n1 [Compound 704, [(3S)-1-methylpyrrolidin-3-yl] 5-[6-[5-(6-methyl-2-pyridyl)-1H-imidazol-4-yl]-3-quinolyl]pyridine-3-carboxylate] | 25.1 to 158 | 0.0398 to 0.316
Cc1cccc(-c2[nH]cnc2-c2ccc3ncc(N4CCC(C(=O)OC5CNC5)CC4)cc3c2)n1 [Compound 705, azetidin-3-yl 1-[6-[5-(6-methyl-2-pyridyl)-1H-imidazol-4-yl]-3-quinolyl]piperidine-4-carboxylate] | 200 to 1260 | 0.0398 to 0.316
COC(=O)[C@H]1CCCCN1CCNc1cnc2ccc(-c3nc[nH]c3-c3cccc(C)n3)cc2c1 [Compound 706, methyl (2R)-1-[2-[[6-[5-(6-methyl-2-pyridyl)-1H-imidazol-4-yl]-3-quinolyl]amino]ethyl]piperidine-2-carboxylate] | 25.1 to 158 | 0.0398 to 0.316
Cc1cccc(-c2[nH]cnc2-c2ccc3ncc(-c4cccc(C(=O)O[C@H]5CCNC5)c4)cc3c2)n1 [Compound 707, [(3S)-pyrrolidin-3-yl] 3-[6-[5-(6-methyl-2-pyridyl)-1H-imidazol-4-yl]-3-quinolyl]benzoate] | 25.1 to 158 | 0.0398 to 0.316
Cc1cccc(-c2[nH]cnc2-c2ccc3ncc(NCCN4CCN[C@@H](CO)C4)cc3c2)n1 [Compound 708, [(2R)-4-[2-[[6-[5-(6-methyl-2-pyridyl)-1H-imidazol-4-yl]-3-quinolyl]amino]ethyl]piperazin-2-yl]methanol] | 200 to 1260 | 0.0398 to 0.316
Cc1cccc(-c2[nH]cnc2-c2ccc3ncc(NCCN4CC5(CNC5)C4)cc3c2)n1 [Compound 709, N-[2-(2,6-diazaspiro[3.3]heptan-2-yl)ethyl]-6-[5-(6-methyl-2-pyridyl)-1H-imidazol-4-yl]quinolin-3-amine] | 25.1 to 158 | 0.0398 to 0.316
Cc1cccc(-c2[nH]cnc2-c2ccc3ncc(C4=CCC(C(=O)O[C@@H]5CCN(C)C5)CC4)cc3c2)n1 (stereo partly drawn) [Compound 710, [(3R)-1-methylpyrrolidin-3-yl] 4-[6-[5-(6-methyl-2-pyridyl)-1H-imidazol-4-yl]-3-quinolyl]cyclohex-3-ene-1-carboxylate] | 25.1 to 158 | 0.0398 to 0.316

Source: patent US11590116B2 (THERAVANCE BIOPHARMA R&D IP, LLC, priority 2019, dated 2023)
